*1 amine or outer side, *2 acyl side, *3 side chain or, on linkers, in order; H or OH if unused. Where a SMILES comes first, the peptide text is derived from it. Bridges are numbered along the chain shown (N, C = ends). [ ]: non-standard residue; d: D form. dPhe(4-F) = N[C@H](Cc1ccc(F)cc1)C(=O)O; NH(CH2)4NH = C(CCN[*:2])CN[*:1]; Nle = CCCC[C@H](N)C(=O)O
Assays:
MC5r [1] = target: T1, MC5r (Homo sapiens, UniProt P33032); experiment: cAMP agonist functional assay at MC5r (not CEREP); format: cell-based
Target sequence in this assay (P33032 whole entry, species assumed): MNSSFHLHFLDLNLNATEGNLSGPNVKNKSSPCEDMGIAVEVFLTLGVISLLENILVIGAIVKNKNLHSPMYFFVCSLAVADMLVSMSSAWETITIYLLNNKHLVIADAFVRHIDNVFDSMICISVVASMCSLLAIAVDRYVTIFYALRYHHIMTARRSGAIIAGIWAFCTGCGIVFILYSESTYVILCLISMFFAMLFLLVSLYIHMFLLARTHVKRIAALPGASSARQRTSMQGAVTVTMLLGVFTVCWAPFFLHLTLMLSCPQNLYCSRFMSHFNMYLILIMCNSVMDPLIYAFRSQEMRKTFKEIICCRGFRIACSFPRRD

MC1r (HBL) = target: T2, MC1r (HBL) (Homo sapiens, UniProt Q01726); experiment: cAMP agonist functional assay, native MC1r in HBL cells; format: cell-based
T2 construct: B16-F10 (mouse) and HBL (human) cell lines that express native MC1 r; endogenous in cells; host or cells: HBL (human) cell line
T2 sequence (Q01726 whole entry): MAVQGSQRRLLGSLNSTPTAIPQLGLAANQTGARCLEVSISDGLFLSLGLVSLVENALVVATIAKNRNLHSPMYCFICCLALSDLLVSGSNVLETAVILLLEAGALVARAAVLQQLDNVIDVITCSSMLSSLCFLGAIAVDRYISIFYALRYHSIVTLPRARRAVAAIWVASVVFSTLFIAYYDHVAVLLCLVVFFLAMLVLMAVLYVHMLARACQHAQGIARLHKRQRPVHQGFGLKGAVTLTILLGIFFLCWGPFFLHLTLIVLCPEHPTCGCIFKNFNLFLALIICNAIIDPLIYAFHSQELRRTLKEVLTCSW
Method: (§1) Accumulation of intracellular cAMP was examined as a measure of the ability of the peptides to elicit a functional response in either HEK-293 cells that express recombinant MC3r or MC4r or B16-F10 (mouse) and HBL (human) cell lines that express native MC1 r. Confluent cells were detached from culture plates by incubation in enzyme-free cell dissociation buffer. Dispersed cells were suspended in Hank's Balanced Salt Solution containing 10 mM HEPES (pH 7.5), 1 mM MgCl2, 1 mM glutamine, 0.5% albumin and 0.3 mM 3-isobutyl-1-methyl-xanthine (IBMX), a phosphodiesterase inhibitor. The cells were dispensed into 96-well plates at a density of 0.5×10^5 cells per well and pre-incubated for 10 minutes. Cells were exposed for 15 minutes at 37° C. to peptides dissolved in DMSO (final DMSO concentration of 1%) at a concentration range of 0.05-5000 nM in a total assay volume of 200 μL. […] Data analysis was performed by nonlinear regression analysis with Graph-Pad Prism® software.

male C57BL/6JRj mice = experiment: Chronic dry-eye disease mouse model (desiccating environment plus scopolamine), corneal fluorescein staining; format: in vivo; details: for corneal fluorescein staining compared with untreated eyes: Day 24, after 12 days topical treatment
Method: To determine efficacy of peptide No. 60 for moderate, chronic dry-eye disease, male C57BL/6JRj mice were exposed to a controlled desiccating environment with transdermal administration of scopolamine (SiccaSystem™) to establish disease prior to any treatment. Corneal fluorescein staining was performed on study Days 10 and 12 (prior to treatment) and Day 24 (after 12 days of topical treatment with test compounds). Animals were randomized into 6 different experimental groups (n=12 for each treatment group, n=7 for untreated eyes) based on the fluorescein score on Day 12. Treatment arms included untreated and vehicle-treated animals and animals receiving Peptide No. 60 (3 different concentrations, 10^−2, 10^−3, and 10^−4 mg/mL) or the reference compound cyclosporin ophthalmic emulsion, sold under the trade name Restasis®.

[2] = Ocular tissue distribution after dosing to the eye, mouse model; format: in vivo; details: at both 4 and 24 hours after dosing to the eye
Method: Peptide No. 60 was evaluated in several stability and pharmacokinetic models.

MC1r (B16/F10) = target: T3, MC1r (B16/F10) (Mus musculus, UniProt Q01727); experiment: cAMP agonist functional assay, native MC1r in B16-F10 cells; format: cell-based
T3 construct: B16-F10 (mouse) and HBL (human) cell lines that express native MC1 r; endogenous in cells; host or cells: B16-F10 (mouse) cell line
T3 sequence (Q01727 whole entry): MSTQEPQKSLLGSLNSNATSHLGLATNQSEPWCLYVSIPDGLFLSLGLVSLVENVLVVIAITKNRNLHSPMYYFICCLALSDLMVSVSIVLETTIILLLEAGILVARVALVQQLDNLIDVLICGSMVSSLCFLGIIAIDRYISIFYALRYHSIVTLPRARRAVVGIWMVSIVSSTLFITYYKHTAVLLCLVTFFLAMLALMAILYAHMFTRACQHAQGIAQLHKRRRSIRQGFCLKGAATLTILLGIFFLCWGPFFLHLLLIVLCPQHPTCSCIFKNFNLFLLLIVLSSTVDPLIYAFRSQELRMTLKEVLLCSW
Method: as §1

[3] = system: adult subjects with mild, moderate or severe dry eye disease; experiment: Phase 2 placebo-controlled study in dry eye disease, Controlled Adverse Environment; format: in vivo, human
Description: Peptide No. 60 was utilized in the ophthalmologic solution drug product of Example 9.3 in a multi-center, double-masked, randomized, placebo-controlled, parallel-arm, Phase 2 study, which enrolled approximately 160 subjects (80 subjects per treatment arm). The objective of this study was to compare the safety and efficacy of Peptide No. 60 to its vehicle from Day 1 (baseline) to Day 85 (Week 12) in adult subjects with mild, moderate or severe dry eye disease in a Controlled Adverse Environment (CAE) setting. Both signs and symptoms were assessed at periodic visits.
During the screening period, two 90-minute exposures to the CAE were conducted to ascertain eligibility to enter the study. Subjects who qualify were randomized to receive study drug or placebo in a double-masked fashion for 12 weeks. Subjects self-administered drops three times per day (TID) and completed daily diary assessments as instructed.
At Visits 3 (Day 15, Week 2), 4 (Day 29, Week 4), 5 (Day 57, Week 8), and 6 (Day 85, Week 12), subjects were exposed to a CAE, with pre-CAE, during CAE (symptoms only) and post-CAE assessments of ocular signs and symptoms.

MC5r [4] = target: T1, MC5r; experiment: CEREP agonist assay, cAMP production by HTRF, MC5 in CHO-K1 cells; format: cell-based
Method: Evaluation of the agonist activity of compounds at the melanocortin receptors was determined by measuring their effects on cAMP production using the HTRF detection method at CEREP (Eurofins CEREP SA, Celle-Levescault, France). The cells were suspended in HBSS buffer (Invitrogen) complemented with 20 mM HEPES (pH 7.4) and 500 μM IBMX, then distributed in microplates and incubated in the presence of HBSS (basal control), the test compound or the reference agonist. Incubation time, temperature, cell number, reference agonist and cell line information are included in the Table 1 below. For stimulated control measurement, separate assay wells contain reference compound. Following incubation, the cells are lysed and the fluorescence acceptor (D2-labeled cAMP) and fluorescence donor (anti-cAMP antibody labeled with europium cryptate) were added. After 60 minutes at room temperature, the fluorescence transfer was measured at excitation wavelength 337 nm and emission wavelengths 620 and 665 nm using a microplate reader (Envision, Perkin Elmer). The cAMP concentration was determined by dividing the signal measured at 665 nm by that measured at 620 nm (ratio).
The results are expressed as a percent of the control response to 1 μM of the reference. The standard reference agonist is tested in each experiment at several concentrations to generate a concentration-response curve from which its EC50 value is calculated.
Target sequence in this assay (P33032 whole entry): as the sequence (P33032 whole entry, species assumed) above

MC4r = target: T4, MC4r (Homo sapiens, UniProt P32245); experiment: cAMP agonist functional assay, recombinant MC4r in HEK-293 cells; format: cell-based
T4 construct: expressed in transfected cells; host or cells: HEK-293
T4 sequence (P32245 whole entry): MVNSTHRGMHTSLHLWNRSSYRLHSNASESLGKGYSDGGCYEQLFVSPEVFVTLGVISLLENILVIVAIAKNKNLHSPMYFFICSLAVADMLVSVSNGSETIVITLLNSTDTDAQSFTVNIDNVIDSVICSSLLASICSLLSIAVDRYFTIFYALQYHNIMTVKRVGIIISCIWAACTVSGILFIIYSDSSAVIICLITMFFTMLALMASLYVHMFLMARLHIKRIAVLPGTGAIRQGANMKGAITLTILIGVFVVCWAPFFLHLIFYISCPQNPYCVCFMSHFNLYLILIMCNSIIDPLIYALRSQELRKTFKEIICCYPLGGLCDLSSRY
Method: as §1

MC3r = target: T5, MC3r (Homo sapiens, UniProt P41968); experiment: cAMP agonist functional assay, recombinant MC3r in HEK-293 cells; format: cell-based
T5 construct: expressed in transfected cells; host or cells: HEK-293
T5 sequence (P41968 whole entry, species assumed): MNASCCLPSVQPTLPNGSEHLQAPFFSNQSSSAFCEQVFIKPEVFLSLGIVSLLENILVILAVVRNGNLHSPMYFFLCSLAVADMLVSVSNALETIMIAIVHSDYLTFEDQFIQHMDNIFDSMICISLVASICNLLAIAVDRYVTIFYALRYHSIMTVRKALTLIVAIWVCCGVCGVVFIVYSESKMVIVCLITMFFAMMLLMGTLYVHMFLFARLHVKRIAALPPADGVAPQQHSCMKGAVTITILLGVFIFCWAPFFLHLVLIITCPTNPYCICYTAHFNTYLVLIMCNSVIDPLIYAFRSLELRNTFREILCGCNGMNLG
Method: as §1

SMILES: CCCC[C@H](NC(C)=O)C(=O)N[C@H]1CCC(=O)NCCCCNC(=O)[C@H](Cc2c[nH]c3ccccc23)NC(=O)[C@H](CCCNC(=N)N)NC(=O)[C@@H](Cc2ccc(F)cc2)NC(=O)[C@H](Cc2c[nH]cn2)NC1=O [Peptide No. 60, Ac-Nle-cyclo(Glu-His-D-Phe(4-F)-Arg-Trp-NH—(CH2)4—NH)] (Ac-[Nle]EH[dPhe(4-F)]RW; linker 2-C via NH(CH2)4NH)
- EC50 (MC5r [1]; MC5r): 0.15 nM
- Fold Peptide No. 60 More Potent Than Bremelanotide (MC5r [1]; MC5r): 22,500X
- Fold Peptide No. 60 More Potent Than α-MSH (MC5r [1]; MC5r): 686X
- potency compared to α-MSH (in words) (MC5r [1]; at MC5r): greater relative potency
- EC50 (MC1r (HBL); MC1r (HBL)): 0.13 nM
- Fold Peptide No. 60 More Potent Than Bremelanotide (MC1r (HBL); MC1r (HBL)): 0.78X
- Fold Peptide No. 60 More Potent Than α-MSH (MC1r (HBL); MC1r (HBL)): 69X
- potency compared to bremelanotide (in words) (MC1r (HBL); at MC1r): approximately equal potency
- potency compared to α-MSH (in words) (MC1r (HBL); at MC1r): greater relative potency
- corneal fluorescein staining compared with untreated eyes (male C57BL/6JRj mice; 10^−2 mg/ml, P<0.05, Dunn's multiple comparisons test): statistically significant lower corneal fluorescein staining
- corneal fluorescein staining compared with untreated eyes (male C57BL/6JRj mice; 10^−3 mg/ml, P<0.01, Dunn's multiple comparisons test): statistically significant lower corneal fluorescein staining
- corneal fluorescein staining compared with untreated eyes (male C57BL/6JRj mice; 10^−4 mg/ml, P<0.01, Dunn's multiple comparisons test): statistically significant lower corneal fluorescein staining
- corneal fluorescein staining/scores, Day 12 compared with Day 24 for the same eye (male C57BL/6JRj mice; doses between 10^−2 and 10^−4 mg/mL, topical): statistically significantly improvement of corneal fluorescein scores
- presence in ocular tissues [2]: found in both the conjunctiva and lacrimal gland
- EC50 (MC1r (B16/F10)): 0.02 nM
- Fold Peptide No. 60 More Potent Than Bremelanotide (MC1r (B16/F10)): 5X
- Fold Peptide No. 60 More Potent Than α-MSH (MC1r (B16/F10)): 11X
- ocular, drug-related adverse events ([3]; Phase 2 study): no ocular, drug-related adverse events
- serious adverse events associated with study treatment ([3]; Phase 2 study): no serious adverse events associated with study treatment observed
- patients discontinued from the study ([3]; not deemed to be drug related): one
- EC50 (MC5r [4]): 0.39 nM
- Fold Peptide No. 60 More Potent Than Bremelanotide (MC5r [4]): >25,000X (CEREP)
- Fold Peptide No. 60 More Potent Than α-MSH (MC5r [4]): 930X (CEREP)
- EC50 (MC4r; MC4r): 2 nM
- Fold Peptide No. 60 More Potent Than Bremelanotide (MC4r; MC4r): 0.5X
- Fold Peptide No. 60 More Potent Than α-MSH (MC4r; MC4r): 1.5X
- potency compared to α-MSH (in words) (MC4r; at MC4r): roughly comparable
- EC50 (MC3r; MC3r): 0.77 nM
- Fold Peptide No. 60 More Potent Than Bremelanotide (MC3r; MC3r): 4X
- Fold Peptide No. 60 More Potent Than α-MSH (MC3r; MC3r): 3.9X
- potency compared to α-MSH (in words) (MC3r; at MC3r): roughly comparable

— patent publication US12692291B2, “Diamine-linked melanocortin receptor-specific cyclic peptides for ocular indications” (Boehringer Ingelheim International GmbH, priority 2020, dated 2026)
